Where two headings read alike, the source gives them in different places.

These results are taken from patent US8664391B2, “Amide compounds as boosters of antivirals” (Janssen R&D Ireland Ltd, priority 2008, dated 2014).

A short description of one data set: in vitro. The data set is classed as in vitro ADME, human. The following applies: human, pH 7.4. From the text: Assay 3: Metabolic Stability of Test Compounds (HLM15′)
Sub-cellular tissue preparations are made according to Gorrod et al. (Xenobiotica, 5, pp. 453-462 (1975)) by centrifugal separation after mechanical homogenization of tissue. Human liver tissue is rinsed in ice-cold 0.1 M Tris-HCl (pH 7.4) buffer to wash excess blood. Tissue is then blotted dry, weighed and chopped coarsely using surgical scissors. The tissue pieces are homogenized in 3 volumes of ice-cold 0.1 M phosphate buffer (pH 7.4) using either a Potter-S (Braun, Italy) equipped with a Teflon pestle or a Sorvall Omni-Mix homogenizer, for 7×10 sec. In both cases, the vessel is kept in/on ice during the homogenization process. Tissue homogenates are centrifuged at 9000×g for 20 min at 4° C. using a Sorvall centrifuge or Beckman Ultracentrifuge. The resulting supernatant can be stored at −80° C. and is designated ‘S9’. The S9 fraction is centrifuged at 100,000×g for 60 min at 4° C. using a Beckman ultracentrifuge. The resulting supernatant is carefully aspirated, aliquoted and designated ‘cytosol’. The pellet is re-suspended in 0.1 M phosphate buffer (pH 7.4) in a final volume of 1 ml per 0.5 g original tissue weight and designated ‘microsomes’. All sub-cellular fractions are aliquoted, immediately frozen in liquid nitrogen and stored at −80° C. until use.
Heat-inactivated (10 min at 95° C.) ‘S9’ or microsomes were used for blank experiments. Reaction mixtures were incubated at 37° C. for 5 min, after which the reaction was started by the addition of 0.8 mM β-NADP. The reaction was incubated for 0 or 15 min. Next, the reaction was stopped by addition of 2 volumes of DMSO (or acetonitrile). Samples were centrifuged (10 min, 900×g) and analyzed by LC-MS.

For the next data set, the target named is CYP2C9 (Homo sapiens, UniProt P11712). Put plainly: CYP450 inhibition, fluorescent substrate assay, CYP2C9. The data set is classed as biochemical. The following applies: pH 7.4. As for the experimental part: (§1) Assay 4: CYP450 Inhibition […] This fluorescent molecule was measured using a fluorescent plate reader (Victor2 (Wallac) or Fluoroskan (Labsystems)). Compounds inhibiting the enzymatic reaction will result in a decrease of fluorescent signal. CYP P450 enzymes were prepared in house or commercially bought and stored at −80° C. [table] The assay was performed in black 96 well Costar plates. Test compounds were added to a CYP P450 enzyme solution in the presence of an NADPH generating system. After 5 min of preincubation at 37° C., the freshly prepared, phosphate buffered (pH 7.4) substrate solution was added. Known CYP P450 inhibitors were used as positive controls, negative controls were run without CYP P450 enzyme. For final reaction mixture concentrations, see Table 6. […] Then, the reaction was stopped by the addition of 200 μl acetonitrile, and the fluorescent signal was detected. [table] […] Inhibition of TMC114 Metabolisation
Sequence of CYP2C9 (P11712 whole entry): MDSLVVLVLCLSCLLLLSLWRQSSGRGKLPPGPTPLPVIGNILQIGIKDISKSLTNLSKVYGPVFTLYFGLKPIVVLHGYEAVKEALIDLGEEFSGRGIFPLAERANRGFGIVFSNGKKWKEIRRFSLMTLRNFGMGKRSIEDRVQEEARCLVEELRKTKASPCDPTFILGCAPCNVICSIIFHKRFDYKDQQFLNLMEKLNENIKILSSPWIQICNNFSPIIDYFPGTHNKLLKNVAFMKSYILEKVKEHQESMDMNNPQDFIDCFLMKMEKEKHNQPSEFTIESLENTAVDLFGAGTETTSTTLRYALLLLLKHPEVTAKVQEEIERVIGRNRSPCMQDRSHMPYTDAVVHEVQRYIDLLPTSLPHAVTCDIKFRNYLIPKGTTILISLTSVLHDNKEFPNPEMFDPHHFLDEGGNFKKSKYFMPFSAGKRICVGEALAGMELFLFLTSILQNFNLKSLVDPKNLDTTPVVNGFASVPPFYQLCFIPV

The next data set deals with T1, CYP2D6 (Homo sapiens, UniProt P10635).
T1 construct: host or cells: E. coli
T1 sequence (P10635 whole entry): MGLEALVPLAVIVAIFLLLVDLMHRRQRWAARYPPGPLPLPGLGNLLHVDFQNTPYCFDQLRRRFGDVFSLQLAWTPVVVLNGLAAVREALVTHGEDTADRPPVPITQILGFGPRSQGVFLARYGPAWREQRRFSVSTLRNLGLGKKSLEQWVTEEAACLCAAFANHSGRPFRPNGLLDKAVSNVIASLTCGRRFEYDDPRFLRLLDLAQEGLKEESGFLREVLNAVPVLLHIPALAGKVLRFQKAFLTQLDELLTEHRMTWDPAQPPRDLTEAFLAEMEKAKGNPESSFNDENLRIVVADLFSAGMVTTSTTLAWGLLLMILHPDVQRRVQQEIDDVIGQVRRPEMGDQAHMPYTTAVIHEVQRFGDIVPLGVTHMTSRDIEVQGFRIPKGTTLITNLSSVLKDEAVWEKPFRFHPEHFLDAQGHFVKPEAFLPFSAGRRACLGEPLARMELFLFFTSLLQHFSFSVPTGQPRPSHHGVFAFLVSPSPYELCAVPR
As to the kind of experiment: CYP450 inhibition, fluorescent substrate assay, CYP2D6. The data set is classed as biochemical. The following applies: E. coli expressed CYP2D6, pH 7.4, probe AMMC (3 μM), 10 μM test compound, substrate AMMC 3 μM, read-out: 2D6-AMMC % inh. How it is done:
as §1

Data set [1] concerns wild-type HIV-1 IIIB strain. Put plainly: Antiviral activity in MT4 LTR-EGFP cellular assay. The data set is classed as cell-based. The following applies: Human immunodeficiency virus 1, 72 h; wild-type HIV-1 IIIB, MT4 LTR-EGFP cells, three days after infection; pEC50 = -log10(EC50); read-out: Antiviral Activity IIIB pEC50 (converted). How it is done:
(§2) Assay 1 &2: Antiviral Activity/Toxicity
The compounds of the present invention were tested for antiviral activity in a cellular assay, which was performed according to the following procedure.
The human T-cell line MT4 is engineered with Green Fluorescent Protein (GFP) and an HIV-specific promoter, HIV-1 long terminal repeat (LTR). This cell line is designated MT4 LTR-EGFP, and can be used for the in vitro evaluation of anti-HIV activity of investigational compounds. In HIV-1 infected cells, the Tat protein is produced which upregulates the LTR promotor and finally leads to stimulation of the GFP reporter production, allowing measuring ongoing HIV-infection fluorometrically.
(§3) The ratio of CC50 to EC50 is defined as the selectivity index (SI) and is an indication of the selectivity of the anti-HIV activity of the inhibitor. The ultimate monitoring of HIV-1 infection and cytotoxicity is done using a scanning microscope. Image analysis allows very sensitive detection of viral infection. Measurements are done before cell necrosis, which usually takes place about five days after infection, in particular measurements are performed three days after infection.
A pEC50 value corresponds to −log10(EC50). A pCC50 value corresponds to −log10(CC50).

The next data set concerns the target T2, CYP2C19 (Homo sapiens, UniProt P33261).
T2 construct: host or cells: E. coli
Put plainly: CYP450 inhibition, fluorescent substrate assay, CYP2C19. To be noted: E. coli expressed CYP2C19, pH 7.4, probe CEC (25 μM), 10 μM test compound, substrate CEC 25 μM, read-out: 2C19-CEC % inh. The data set is classed as biochemical. How it is done:
as §1

The nature of data set [2]: Cytotoxicity in mock-infected MT4 CMV-EGFP cells. The data set is classed as cell-based. To be noted: human, pCC50 = -log10(CC50), read-out: Toxicity MT4 pCC50 (converted).
Source text: as §2
Analogously, MT4 cells are engineered with GFP and the constitutional cytomegalovirus (CMV) promotor. This cell line is designated MT4 CMV-EGFP, and can be used for the in vitro evaluation of cytotoxicity of investigational compounds. In this cell line, GFP levels are comparably to those of infected MT4 LTR-EGFP cells. Cytotoxic investigational compounds reduce GFP levels of mock-infected MT4 CMV-EGFP cells.
as §3, with “Effective concentration values such as 50% effective concentration (EC50) can be determined and are usually expressed in μM. An EC50 value is defined as the concentration of test compound that reduces the fluorescence of HIV-infected cells by 50%. The 50% cytotoxic concentration (CC50 in μM) is defined as the concentration of test compound that reduces fluorescence of the mock-infected cells by 50%. The ratio” for “The ratio”
Table 2 lists pEC50 values against the wild-type HIV-1 IIIB strain as well as pCC50 values for a selected number of compounds of the invention. A pEC50 value corresponds to −log10(EC50). A pCC50 value corresponds to −log10(CC50).

In another data set the target is T3, CYP3A4 (Homo sapiens, UniProt P08684).
T3 construct: host or cells: E. coli
T3 sequence (P08684 whole entry): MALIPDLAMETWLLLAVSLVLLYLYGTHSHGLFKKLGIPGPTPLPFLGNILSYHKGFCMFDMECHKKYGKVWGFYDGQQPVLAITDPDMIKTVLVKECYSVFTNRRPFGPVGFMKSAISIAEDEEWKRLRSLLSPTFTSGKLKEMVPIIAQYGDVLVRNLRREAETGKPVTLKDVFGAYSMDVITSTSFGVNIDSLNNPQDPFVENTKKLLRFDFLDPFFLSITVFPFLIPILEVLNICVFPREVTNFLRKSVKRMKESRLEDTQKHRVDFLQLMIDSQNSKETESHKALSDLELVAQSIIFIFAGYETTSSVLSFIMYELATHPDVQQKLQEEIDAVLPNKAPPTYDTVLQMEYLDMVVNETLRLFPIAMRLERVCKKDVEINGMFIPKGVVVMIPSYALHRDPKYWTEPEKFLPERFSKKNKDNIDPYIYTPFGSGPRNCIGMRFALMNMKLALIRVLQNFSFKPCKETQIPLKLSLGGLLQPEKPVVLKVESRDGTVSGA
As to the kind of experiment: CYP450 inhibition, fluorescent substrate assay, CYP3A4. The data set is classed as biochemical. To be noted: 10 μM test compound; for inhibition at 10 min, 10 μM: E. coli expressed CYP3A4, pH 7.4, probe DBF (1 μM), substrate DBF 1 μM, read-out: 3A4-DBF % inh. How it is done:
as §1

A further data set has as its target T4, CYP1A2 (Homo sapiens, UniProt P05177).
T4 construct: host or cells: E. coli
T4 sequence (P05177 1-516): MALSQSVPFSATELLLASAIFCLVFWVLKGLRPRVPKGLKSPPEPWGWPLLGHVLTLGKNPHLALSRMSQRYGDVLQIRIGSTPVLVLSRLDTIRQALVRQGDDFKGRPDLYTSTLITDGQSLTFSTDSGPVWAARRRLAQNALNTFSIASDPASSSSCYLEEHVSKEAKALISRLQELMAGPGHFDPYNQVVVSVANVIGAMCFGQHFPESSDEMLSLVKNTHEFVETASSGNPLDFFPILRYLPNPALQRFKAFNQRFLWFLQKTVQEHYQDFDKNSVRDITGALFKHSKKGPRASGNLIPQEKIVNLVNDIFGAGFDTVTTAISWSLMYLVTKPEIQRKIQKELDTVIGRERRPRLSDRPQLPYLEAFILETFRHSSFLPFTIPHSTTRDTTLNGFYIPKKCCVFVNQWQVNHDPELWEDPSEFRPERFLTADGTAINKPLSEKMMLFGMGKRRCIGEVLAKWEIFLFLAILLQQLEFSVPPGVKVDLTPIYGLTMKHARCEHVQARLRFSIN
As to the kind of experiment: CYP450 inhibition, fluorescent substrate assay, CYP1A2. The data set is classed as biochemical. The following applies: E. coli expressed CYP1A2, pH 7.4, probe CEC (5 μM), 10 μM test compound, substrate CEC 5 μM, read-out: 1A2-CEC % inh. As for the experimental part: as §1

Where [3] appears, read: E. coli expressed CYP3A4, pH 7.4, probe BFC (150 μM), substrate BFC 150 μM, read-out: 3A4-BFC % inh.
Setting [4] is: E. coli expressed CYP3A4, pH 7.4, probe BQ (60 μM), substrate BQ 60 μM, read-out: 3A4-BQ % inh.

T2 sequence (P33261 whole entry): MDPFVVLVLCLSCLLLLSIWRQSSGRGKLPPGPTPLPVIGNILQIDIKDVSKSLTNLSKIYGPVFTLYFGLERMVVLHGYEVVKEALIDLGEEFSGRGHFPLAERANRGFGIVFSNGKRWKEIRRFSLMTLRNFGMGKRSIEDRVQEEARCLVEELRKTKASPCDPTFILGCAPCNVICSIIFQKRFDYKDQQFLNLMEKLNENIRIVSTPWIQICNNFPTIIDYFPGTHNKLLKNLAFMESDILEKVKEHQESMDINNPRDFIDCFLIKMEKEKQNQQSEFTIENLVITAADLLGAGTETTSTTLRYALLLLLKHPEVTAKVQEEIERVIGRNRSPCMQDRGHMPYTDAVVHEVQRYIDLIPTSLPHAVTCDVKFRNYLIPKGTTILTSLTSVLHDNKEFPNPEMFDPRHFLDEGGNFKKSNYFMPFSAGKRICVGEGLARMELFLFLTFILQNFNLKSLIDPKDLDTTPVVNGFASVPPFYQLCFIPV

Turning to `CC(C)CN(C[C@@H](O)[C@H](Cc1ccccc1)NC(=O)OCc1cncs1)C(=O)c1ccc(F)cc1` [Compound C6], in “in vitro”, the recovery at 15 min, 5 μM was 81%. The inhibition at 30 min, 10 μM at CYP2C9 was determined as 96%; at CYP2C19, 94%; on CYP3A4 (setting [3]) it was 82%; on CYP3A4 (setting [4]), 83%. For the same compound, at CYP2D6, the inhibition at 45 min, 10 μM was found to be 65%. The EC50 in data set [1] is 79.4 µM. Also, the CC50 at 3 days in data set [2] is greater than 100 µM. Also, the inhibition at 10 min, 10 μM at CYP3A4 was determined as 92%. On CYP1A2, the inhibition at 15 min, 10 μM turned out to be 41%.
Compound `COc1cccc(C(=O)N(CC(C)C)C[C@@H](O)[C@H](Cc2ccccc2)NC(=O)OCc2cncs2)c1` [Compound C7] registered a recovery at 15 min, 5 μM in “in vitro” of 56%. The inhibition at 30 min, 10 μM against CYP2C9 turned out to be 97%; at CYP2C19, 89%; at CYP3A4 (setting [3]) it was 92%; at CYP3A4 (setting [4]), 80%. The inhibition at 45 min, 10 μM on CYP2D6 turned out to be 45%. The EC50 in data set [1] is 83.2 µM. The CC50 at 3 days in data set [2] was 70.8 µM. Moreover, the inhibition at 10 min, 10 μM on CYP3A4 was determined as 94%. The inhibition at 15 min, 10 μM on CYP1A2 stood at 13%.
In “in vitro”, `CC(C)CN(C[C@@H](O)[C@H](Cc1ccccc1)NC(=O)OCc1cncs1)C(=O)c1ccncc1` [Compound C8] came in with a recovery at 15 min, 5 μM of 81%. For the same compound, the inhibition at 30 min, 10 μM on CYP2C9 came to 95%; on CYP2C19, 76%; on CYP3A4 (setting [3]) it was 91%; at CYP3A4 (setting [4]), 79%. The inhibition at 45 min, 10 μM on CYP2D6 was 39%. In addition, the EC50 in data set [1] was greater than 100 µM. The CC50 at 3 days in data set [2] is greater than 100 µM. The inhibition at 10 min, 10 μM on CYP3A4 is 91%. For the same compound, the inhibition at 15 min, 10 μM on CYP1A2 amounted to 4%.
The compound `CC(C)CN(C[C@@H](O)[C@H](Cc1ccccc1)NC(=O)OCc1cncs1)C(=O)c1ccccn1` [Compound C9] registered a recovery at 15 min, 5 μM in “in vitro” of 55%. In addition, the inhibition at 30 min, 10 μM was 85% against CYP2C9, 64% at CYP2C19, 91% on CYP3A4 (setting [3]) and 78% on CYP3A4 (setting [4]). Also, the inhibition at 45 min, 10 μM on CYP2D6 was 66%. For the same compound, the EC50 in data set [1] is greater than 100 µM. For the same compound, the CC50 at 3 days in data set [2] is greater than 100 µM. For the same compound, the inhibition at 10 min, 10 μM at CYP3A4 came out at 89%. The inhibition at 15 min, 10 μM at CYP1A2 was 4%.
Compound `Cc1cccc(C(=O)N(CC(C)C)C[C@@H](O)[C@H](Cc2ccccc2)NC(=O)OCc2cncs2)c1` [Compound C10] came in with a recovery at 15 min, 5 μM in the data set “in vitro” of 47%. The inhibition at 30 min, 10 μM against CYP2C9 amounted to 96%; at CYP2C19, 92%; on CYP3A4 (setting [3]) it was 95%; on CYP3A4 (setting [4]), 79%. On CYP2D6, the inhibition at 45 min, 10 μM is 62%. The EC50 in data set [1] is greater than 100 µM. Also, the CC50 at 3 days in data set [2] is greater than 100 µM. Also, at CYP3A4, the inhibition at 10 min, 10 μM is 93%. Moreover, the inhibition at 15 min, 10 μM at CYP1A2 was 33%.
The compound `CC(C)CN(C[C@@H](O)[C@H](Cc1ccccc1)NC(=O)OCc1cncs1)C(=O)c1cccc(C(F)(F)F)c1` [Compound C11] returned a recovery at 15 min, 5 μM in “in vitro” of 52%. The inhibition at 30 min, 10 μM at CYP2C9 came out at 97%; on CYP2C19 it was 100%; on CYP3A4 (setting [3]), 94%; on CYP3A4 (setting [4]) it was 78%. The inhibition at 45 min, 10 μM at CYP2D6 amounted to 86%. In data set [1], the EC50 is 38 µM. Moreover, the CC50 at 3 days in data set [2] was 34.7 µM. On CYP3A4, the inhibition at 10 min, 10 μM is 99%. The inhibition at 15 min, 10 μM at CYP1A2 amounted to 45%.
In “in vitro”, `CC(C)CN(C[C@@H](O)[C@H](Cc1ccccc1)NC(=O)OCc1cncs1)C(=O)c1cnc2ccccc2n1` [Compound C12, 1S-2R-{1-Benzyl-2-hydroxy-3-[isobutyl-(quinoxaline-2-carbonyl)-amino]-propyl}-carbamic acid thiazol-5-ylmethyl ester] returned a recovery at 15 min, 5 μM of 67%. The inhibition at 30 min, 10 μM at CYP2C9 amounted to 92%; on CYP2C19, 81%; at CYP3A4 (setting [3]), 70%; on CYP3A4 (setting [4]), 79%. The inhibition at 45 min, 10 μM on CYP2D6 is 0%. For the same compound, the EC50 in data set [1] was 60.3 µM. In data set [2], the CC50 at 3 days is 61.7 µM. Also, the inhibition at 10 min, 10 μM on CYP3A4 is 93%. In addition, the inhibition at 15 min, 10 μM at CYP1A2 was determined as 21%.
